Test results reported in BigSolDB 2.1.

O=C(O)CNCc1ccccc1
solubility (mole fraction)
Details	283.15 K	288.15 K	293.15 K	298.15 K	303.15 K	313.15 K	323.15 K
in 1,4-dioxane	3.3e-05	–	5.5e-05	–	8.4e-05	0.00015	0.000211
in acetone	7.1e-05	–	9.4e-05	–	0.000133	0.000165	0.00024
in acetonitrile	5e-06	–	1.1e-05	–	1.7e-05	2.8e-05	4e-05
in dichloromethane	9e-06	2.1e-05	3.4e-05	4.2e-05	5.7e-05	–	–
in ethanol	0.000222	–	0.000326	–	0.00043	0.000526	0.000709
in ethyl acetate	1.1e-05	–	3.3e-05	–	6.7e-05	0.000102	0.000173
in isopropanol	6e-05	–	8e-05	–	9.6e-05	0.00012	0.000173
in methanol	0.00217	–	0.00269	–	0.00335	0.00416	0.0053
in n-butanol	0.000166	–	0.000203	–	0.000262	0.000338	0.000397
in n-propanol	0.000214	–	0.000266	–	0.000306	0.00037	0.000456
in water	0.00909	–	0.0113	–	0.014	0.0169	0.0214
